# Assay results published in patent US12655116B2, “Substituted isophthalic acid diamides” (Bayer Aktiengesellschaft, priority 2020, dated 2026).
# Columns and labels:
# VERPE [1] = assay: Pre-emergence herbicidal action against VERPE; assay type: in vivo, Veronica persica; conditions: dosage 80 g/ha
# Outline: (§1)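 Herbicidal effect was assessed 3 weeks after treatment by visual comparison with untreated controls, 100% denoting dead plants. Aqueous WP or EC preparations had been applied at 600 to 800 l/ha with 0.2% wetting agent to the soil covering freshly sown seeds.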
# ECHCG [2] = assay: Pre-emergence herbicidal action against ECHCG; assay type: in vivo, Echinochloa crus-galli; conditions: 80 g/ha
# Outline: as §1
# ABUTH [3] = assay: Pre-emergence herbicidal action against ABUTH; assay type: in vivo, Abutilon theophrasti; conditions: for Pre-emergence action against ABUTH (herbicidal activity): 80 g/ha, scored visually after 3 weeks vs untreated controls (100% = plants have died, 0% = like control plants); for Pre-emergence action against ABUTH (herbicidal activity in percent): dosage 20 g/ha, scored visually after 3 weeks vs untreated controls, 100% = plants have died, 0% = like control plants
# Outline: as §1
# AMARE [4] = assay: Pre-emergence herbicidal action against AMARE; assay type: in vivo, Amaranthus retroflexus
# Outline: as §1
# VIOTR [5] = assay: Pre-emergence herbicidal action against VIOTR; assay type: in vivo, Viola tricolor
# Outline: as §1
# ABUTH [6] = assay: Post-emergence herbicidal action against ABUTH; assay type: in vivo, Abutilon theophrasti; conditions: visual assessment about 3 weeks after treatment vs untreated controls
# Outline: (§2)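 Herbicidal effect was scored visually in percent after about 3 weeks in the greenhouse. Plants had been raised in sandy loam and treated post-emergence at the one-leaf stage with formulated compound at 600 to 800 l/ha water plus 0.2% wetting agent.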
# PHBPU [7] = assay: Post-emergence herbicidal action against PHBPU; assay type: in vivo, Pharbitis purpurea; conditions: dosage 20 g/ha
# Outline: as §2
# DIGSA [8] = assay: Post-emergence herbicidal action against DIGSA; assay type: in vivo, Digitaria sanguinalis
# Outline: as §2
# MATIN [9] = assay: Post-emergence herbicidal action against MATIN; assay type: in vivo, Matricaria inodora
# Outline: as §2
# ALOMY [10] = assay: Post-emergence herbicidal action against ALOMY; assay type: in vivo, Alopecurus myosuroides; conditions: dosage 20 g/ha, visual assessment about 3 weeks after treatment vs untreated controls
# Outline: as §2
# SETVI [11] = assay: Post-emergence herbicidal action against SETVI; assay type: in vivo, Setaria viridis; conditions: dosage 20 g/ha
# Outline: as §2
# DIGSA [12] = assay: Pre-emergence herbicidal action against DIGSA; assay type: in vivo, Digitaria sanguinalis
# Outline: as §1
# ECHCG [13] = assay: Post-emergence herbicidal action against ECHCG; assay type: in vivo, Echinochloa crus-galli
# Outline: as §2
# POLCO = assay: Pre-emergence herbicidal action against POLCO; assay type: in vivo, Polygonum convolvulus; conditions: dosage 80 g/ha
# Outline: as §1
# PHBPU [14] = assay: Pre-emergence herbicidal action against PHBPU; assay type: in vivo, Pharbitis purpurea; conditions: dosage 80 g/ha
# Outline: as §1
# AMARE [15] = assay: Post-emergence herbicidal action against AMARE; assay type: in vivo, Amaranthus retroflexus; conditions: 20 g/ha, visual assessment about 3 weeks after treatment, 100% = plants have died, 0% = like control plants
# Outline: as §2
# ALOMY [16] = assay: Pre-emergence herbicidal action against ALOMY; assay type: in vivo, Alopecurus myosuroides; conditions: 80 g/ha, pre-emergence, scored visually after 3 weeks vs untreated controls (100% = plants have died, 0% = like control plants)
# Outline: as §1
# MATIN [17] = assay: Pre-emergence herbicidal action against MATIN; assay type: in vivo, Matricaria inodora
# Outline: as §1
# VERPE [18] = assay: Post-emergence herbicidal action against VERPE; assay type: in vivo, Veronica persica
# Outline: as §2
# VIOTR [19] = assay: Post-emergence herbicidal action against VIOTR; assay type: in vivo, Viola tricolor; conditions: 20 g/ha
# Outline: as §2
# SETVI [20] = assay: Pre-emergence herbicidal action against SETVI; assay type: in vivo, Setaria viridis; conditions: dosage 80 g/ha
# Outline: as §1
# AVEFA = assay: Pre-emergence herbicidal action against AVEFA; assay type: in vivo, Avena fatua; conditions: 80 g/ha, pre-emergence
# Outline: as §1
# [21] = 20 g/ha, scored visually after 3 weeks vs untreated controls, 100% = plants have died, 0% = like control plants
# [22] = 80 g/ha, scored visually after 3 weeks vs untreated controls (100% = plants have died, 0% = like control plants)
compound,measurement,setting,value
CCn1nnnc1NC(=O)c1ccc(C(F)(F)F)c(C(=O)NCC2CC2)c1C1CC1 [Example 2-289],Pre-emergence action against VERPE in %,VERPE [1],100%
same,Pre-emergence action against ECHCG in %,ECHCG [2],100%
same,Pre-emergence action against ABUTH (herbicidal activity),ABUTH [3],100%
same,Pre-emergence action against ABUTH (herbicidal activity in percent),ABUTH [3],100%
same,Pre-emergence action against AMARE in %,AMARE [4]; [21],100%
same,Pre-emergence action against AMARE in %,AMARE [4]; [22],100%
same,Pre-emergence action against VIOTR in %,VIOTR [5]; dosage 20 g/ha,100%
same,Pre-emergence action against VIOTR in %,VIOTR [5]; dosage 80 g/ha,100%
same,Post-emergence action against ABUTH in %,ABUTH [6]; dosage 20 g/ha,80%
same,Post-emergence action against PHBPU in %,PHBPU [7],90%
same,Post-emergence action against DIGSA in %,DIGSA [8]; 5 g/ha,90%
same,Post-emergence action against DIGSA,DIGSA [8]; 20 g/ha,100%
same,Post-emergence action against MATIN in %,MATIN [9]; dosage 5 g/ha,80%
same,Post-emergence action against MATIN in %,MATIN [9]; dosage 20 g/ha,90%
same,Post-emergence action against ALOMY in %,ALOMY [10],90%
same,Post-emergence action against SETVI in %,SETVI [11],80%
same,Pre-emergence action against DIGSA in %,DIGSA [12]; dosage 20 g/ha,100%
same,Pre-emergence action against DIGSA in %,DIGSA [12]; dosage 80 g/ha,100%
same,Post-emergence action against ECHCG in %,ECHCG [13]; dosage 5 g/ha,80%
same,Post-emergence action against ECHCG in %,ECHCG [13]; dosage 20 g/ha,90%
same,Pre-emergence action against POLCO in %,POLCO,80%
same,Pre-emergence action against PHBPU in %,PHBPU [14],80%
same,Post-emergence action at 20 g/ha against AMARE in %,AMARE [15],100%
same,Pre-emergence action against ALOMY (herbicidal activity),ALOMY [16],90%
same,Pre-emergence action against MATIN in %,MATIN [17]; dosage 20 g/ha,90%
same,Pre-emergence action against MATIN in %,MATIN [17]; dosage 80 g/ha,100%
same,Post-emergence action against VERPE in %,VERPE [18]; 5 g/ha,80%
same,Post-emergence action against VERPE in %,VERPE [18]; 20 g/ha,100%
same,Post-emergence action against VIOTR in %,VIOTR [19],90%
same,Pre-emergence action against SETVI in %,SETVI [20],90%
CCn1nnnc1NC(=O)c1ccc(C(F)F)c(C(=O)NC2CC2)c1OC [Example 2-74],Pre-emergence action against VERPE in %,VERPE [1],90%
same,Pre-emergence action against ECHCG in %,ECHCG [2],100%
same,Pre-emergence action against ABUTH (herbicidal activity),ABUTH [3],100%
same,Pre-emergence action against ABUTH (herbicidal activity in percent),ABUTH [3],100%
same,Pre-emergence action against AMARE in %,AMARE [4]; [21],100%
same,Pre-emergence action against AMARE in %,AMARE [4]; [22],100%
same,Pre-emergence action against VIOTR in %,VIOTR [5]; dosage 20 g/ha,100%
same,Pre-emergence action against VIOTR in %,VIOTR [5]; dosage 80 g/ha,100%
same,Post-emergence action against ABUTH in %,ABUTH [6]; dosage 5 g/ha,80%
same,Post-emergence action against ABUTH in %,ABUTH [6]; dosage 20 g/ha,80%
same,Post-emergence action against PHBPU in %,PHBPU [7],80%
same,Post-emergence action against MATIN in %,MATIN [9]; dosage 20 g/ha,80%
same,Post-emergence action against ALOMY in %,ALOMY [10],80%
same,Post-emergence action against SETVI in %,SETVI [11],90%
same,Pre-emergence action against DIGSA in %,DIGSA [12]; dosage 20 g/ha,100%
same,Pre-emergence action against DIGSA in %,DIGSA [12]; dosage 80 g/ha,100%
same,Post-emergence action against ECHCG in %,ECHCG [13]; dosage 5 g/ha,80%
same,Post-emergence action against ECHCG in %,ECHCG [13]; dosage 20 g/ha,80%
same,Pre-emergence action against POLCO in %,POLCO,80%
same,Pre-emergence action against PHBPU in %,PHBPU [14],90%
same,Pre-emergence action against ALOMY (herbicidal activity),ALOMY [16],100%
same,Pre-emergence action against AVEFA in %,AVEFA,80%
same,Pre-emergence action against MATIN in %,MATIN [17]; dosage 20 g/ha,100%
same,Pre-emergence action against MATIN in %,MATIN [17]; dosage 80 g/ha,100%
same,Post-emergence action against VERPE in %,VERPE [18]; 20 g/ha,80%
same,Post-emergence action against VIOTR in %,VIOTR [19],80%
same,Pre-emergence action against SETVI in %,SETVI [20],100%
